The values that follow come from article PMC6573034 (Nature Communications, 2019).

Structures are written as SMILES. Entries after “also recorded” stand apart in the source; their conditions may differ.

In one assay the target is MCT1. The arrangement: method as in Ovens et al., 2010, Biochem. J. 425:523-30. As to conditions: reported value, ref Ovens et al., 2010, Biochem. J. 425:523-30; cited from earlier work.
Assay [1] concerns the target T1, SfMCT (Syntrophobacter fumaroxidans, UniProt A0LNN5).
T1 construct: expressed in transfected cells; host or cells: E. coli JA202 (MC4100 glcA::cat lldP::kan), plasmid pEXT20-SfMCT-3C-10His
T1 sequence (A0LNN5 1-412): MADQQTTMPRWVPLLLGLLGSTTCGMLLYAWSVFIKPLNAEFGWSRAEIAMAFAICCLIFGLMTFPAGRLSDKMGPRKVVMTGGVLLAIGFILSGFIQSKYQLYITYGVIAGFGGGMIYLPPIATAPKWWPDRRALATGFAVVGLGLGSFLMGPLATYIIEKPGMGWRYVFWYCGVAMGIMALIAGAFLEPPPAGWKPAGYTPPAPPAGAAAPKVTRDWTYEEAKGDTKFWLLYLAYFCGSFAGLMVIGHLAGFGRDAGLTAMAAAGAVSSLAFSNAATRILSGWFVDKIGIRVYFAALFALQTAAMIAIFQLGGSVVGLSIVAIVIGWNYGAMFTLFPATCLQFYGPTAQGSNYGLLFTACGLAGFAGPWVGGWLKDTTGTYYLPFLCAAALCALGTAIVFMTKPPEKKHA
The assay is classed as cell-based. Here is the method:
The cultures were grown at 37 °C and 180 r.p.m. in an incubator shaker (Multitron, Infors HT). Protein expression was induced at OD600 ~0.5 by addition of IPTG to a final concentration of 0.25 mM. After 4 h, bacteria were pelleted (5,200 × g, 10 min, room temperature) and resuspended in uptake buffer (20 mM Bis-Tris propane-HCl (pH 6.7), 250 mM KCl) to a bacteria density of OD600 12. […] Furthermore, [3-3 H] propionic acid sodium salt ([^3H]propionate, American Radiolabeled Chemicals, specific activity 30 Ci/mmol), n-[2,3-3 H] butyric acid sodium salt ([^3H]butyrate, American Radiolabeled Chemicals, specific activity 120 Ci/mmol), and [1–14 C] pyruvic acid sodium salt ([^14C]pyruvate, specific activity 0.055 Ci/mmol American Radiolabeled Chemicals) were also used for transport experiments. […] Uptake experiments were performed in 2 ml reaction tubes (Eppendorf) at 30 °C under agitation (1,000 r.p.m., Thermomixer compact, Eppendorf). […] Bacteria were immediately pelleted by centrifugation (21,000 × g, 4 min, room temperature) and washed two times with 900 μl stop buffer. Finally, bacteria were lyzed in 50 μl 5% (w/v) sodium dodecylsulfate and transferred into a white 96-well plate (Optiplate, PerkinElmer). 150 µl of scintillation cocktail (MicroScint 40, PerkinElmer) were added before measuring each reaction for 2 min with a scintillation counter (TopCount NXT, PerkinElmer). For data analysis, the signal of the empty vector was subtracted from the transporter signal. […] Cpm values of each experiment were normalized with respect to the determined upper plateau value, i.e., the fitted upper plateau value corresponds to 100%. The arithmetic average of three independent experiments was calculated. Three independent and normalized pH-dependence curves were then averaged. For data analysis Prism6 (GraphPad Software) was used. […] Equal amounts of bacteria expressing SfMCT variants were loaded on 14% SDS/polyacrylamide gels. His-tagged transporters were detected using an anti-His5 (Qiagen, catalogue number 34660, primary antibody) at a dilution of 1:3,000 and a goat anti-mouse IgG (H + L) HRP conjugate antibody (Biorad, catalogue number 172-1011, secondary antibody) at a dilution of 1:2,500.

For assay [2], the target named is T1, SfMCT. Nature of the assay: Micro pH electrode-based transport assay, SfMCT-expressing E. coli JA202. The class given is cell-based. The settings on record: 10 mM compound (pH 6.5) added to bacterial suspension pH 6.7. The method, then:
A measuring set up as previously reported[18] was used for micro pH electrode-based transport measurements. SfMCT was expressed in E. coli JA202 (MC4100 glcA::cat lldP::kan)[15] as described for uptake experiments. After expression, bacteria were pelleted (5,200 × g, 10 min, room temperature), washed twice in assay solution (250 mM KCl, 1 mM MgSO4, 2 mM CaCl2; 5,200 × g, 10 min, room temperature) and finally resuspended in assay solution to a bacterial density of OD600 15. Compounds that were assayed for proton-coupled transport were dissolved in assay solution and the pH was adjusted to 6.5. 800 µl of bacteria suspension were transferred into a 2 ml reaction tube (Eppendorf) and the pH value of the bacterial suspension (extracellular medium) was measured using a micro pH electrode with integrated temperature sensor (InLab Micro Pro, Mettler Toledo) under constant stirring. The pH of the bacterial suspension was adjusted to pH 6.7 using potassium hydroxide and hydrochloric acid. The SevenCompact pH-meter (Mettler Toledo), together with LabX direct pH 2.3 software (Mettler Toledo), were used for automatic recording in 15 s intervals. Measurements were initiated by adding 10 mM of the corresponding compound to the bacterial suspension. All experiments were performed at 24 °C.

The next assay has as its target T2, Y331F SfMCT (Syntrophobacter fumaroxidans, UniProt A0LNN5, Y331F).
T2 construct: expressed in transfected cells; host or cells: E. coli JA202, pEXT20-SfMCT-3C-10His mutant plasmid
Nature of the assay: [14C]L-lactate transport competition assay, Y331F SfMCT. The class given is cell-based. The settings on record: competition of [14C]L-lactate uptake. The method, then: The cultures were grown at 37 °C and 180 r.p.m. in an incubator shaker (Multitron, Infors HT). Protein expression was induced at OD600 ~0.5 by addition of IPTG to a final concentration of 0.25 mM. After 4 h, bacteria were pelleted (5,200 × g, 10 min, room temperature) and resuspended in uptake buffer (20 mM Bis-Tris propane-HCl (pH 6.7), 250 mM KCl) to a bacteria density of OD600 12. […] Furthermore, [3-3 H] propionic acid sodium salt ([^3H]propionate, American Radiolabeled Chemicals, specific activity 30 Ci/mmol), n-[2,3-3 H] butyric acid sodium salt ([^3H]butyrate, American Radiolabeled Chemicals, specific activity 120 Ci/mmol), and [1–14 C] pyruvic acid sodium salt ([^14C]pyruvate, specific activity 0.055 Ci/mmol American Radiolabeled Chemicals) were also used for transport experiments. […] Cpm values of each experiment were normalized with respect to the determined upper plateau value, i.e., the fitted upper plateau value corresponds to 100%. The arithmetic average of three independent experiments was calculated. […] His-tagged transporters were detected using an anti-His5 (Qiagen, catalogue number 34660, primary antibody) at a dilution of 1:3,000 and a goat anti-mouse IgG (H + L) HRP conjugate antibody (Biorad, catalogue number 172-1011, secondary antibody) at a dilution of 1:2,500.

T2 sequence (A0LNN5 whole entry Y331F): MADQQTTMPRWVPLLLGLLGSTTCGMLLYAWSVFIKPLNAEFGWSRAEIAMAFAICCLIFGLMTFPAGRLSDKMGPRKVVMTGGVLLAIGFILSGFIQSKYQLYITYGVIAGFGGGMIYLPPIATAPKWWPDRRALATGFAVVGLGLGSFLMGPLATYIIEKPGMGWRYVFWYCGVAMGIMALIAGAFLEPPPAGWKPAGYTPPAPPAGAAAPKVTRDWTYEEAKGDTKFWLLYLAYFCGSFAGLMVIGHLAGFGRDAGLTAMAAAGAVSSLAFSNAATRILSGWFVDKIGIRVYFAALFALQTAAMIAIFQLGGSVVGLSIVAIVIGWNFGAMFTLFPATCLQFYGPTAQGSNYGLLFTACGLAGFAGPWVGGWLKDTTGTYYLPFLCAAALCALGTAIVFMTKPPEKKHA

For orientation: Ki means a dissociation constant, usually derived from enzyme kinetics or from competition with a known ligand. For `Cc1n[nH]c(C)c1Cc1sc2c(c1C(=O)N1C[C@H](O)CO1)c(=O)n(C)c(=O)n2CC(C)C` [AR-C155858, reference compound], the Ki on MCT1 was about 0.002 µM. In addition, on SfMCT [1] (100 µM AR-C155858, control: 100%), the “[14C]L-lactate uptake” value came to 103%.
For the compound `O=C(O)c1ccccc1S` [TSA, thiosalicylate], the “proton-coupled transport, change of extracellular pH (in words)” value on SfMCT [2] is on record as “not a substrate; also recorded: not transported”. In addition, the Ki at Y331F SfMCT is 1380 µM; on SfMCT [1] (wild-type (WT) SfMCT, competition of [14C]L-lactate uptake), 120 µM.
